Test results reported in doi:10.1101/2024.02.27.582382, “Distinct roles of the major binding residues in the cation-binding pocket of MelB” (bioRxiv, 2024).
Like-named read-outs stand apart in the source and are kept apart here.

Legend:
[1] = molecular target: T1, MelBSt (melibiose permease of Salmonella enterica serovar Typhimurium) (Salmonella enterica, UniProt P30878); experiment: ITC; assay type: binding; settings: pH 8.5, 25 °C, Na+-free, 20 mM Tris-HCl, 100 mM choline chloride, 0.035% UDM
T1 construct: gene melB; full length, C-terminal His10 tag (plasmid pK95 delta-AH/MelBSt/CHis10), expressed in E. coli DW2; modelled residues 2-454 or 2-456

[2] = molecular target: T2, MelBSt (melibiose permease of Salmonella enterica serovar Typhimurium) (Salmonella enterica, UniProt P30878, D55C); experiment: biochemical
T2 construct: gene melB
Description: ITC on MelBSt (melibiose permease of Salmonella enterica serovar Typhimurium)

Asp59 = Asp59 (UniProt position 59, WDAINDPIMGW); experiment: ITC; settings: cited from earlier work

T2 sequence (P30878 whole entry D55C): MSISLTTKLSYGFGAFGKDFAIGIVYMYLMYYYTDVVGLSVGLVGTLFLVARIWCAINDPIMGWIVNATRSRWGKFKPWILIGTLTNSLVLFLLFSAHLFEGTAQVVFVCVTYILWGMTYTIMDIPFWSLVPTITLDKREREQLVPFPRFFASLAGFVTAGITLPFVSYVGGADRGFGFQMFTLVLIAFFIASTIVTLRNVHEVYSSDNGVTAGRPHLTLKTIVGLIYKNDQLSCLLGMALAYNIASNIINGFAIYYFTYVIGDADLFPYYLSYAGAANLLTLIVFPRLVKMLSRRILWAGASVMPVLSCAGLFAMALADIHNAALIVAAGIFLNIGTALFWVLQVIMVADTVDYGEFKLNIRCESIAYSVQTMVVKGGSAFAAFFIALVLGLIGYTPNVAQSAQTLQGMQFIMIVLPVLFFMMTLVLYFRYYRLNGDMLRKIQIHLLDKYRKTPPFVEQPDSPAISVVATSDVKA
T1 sequence (P30878 whole entry, the tested form may be a part): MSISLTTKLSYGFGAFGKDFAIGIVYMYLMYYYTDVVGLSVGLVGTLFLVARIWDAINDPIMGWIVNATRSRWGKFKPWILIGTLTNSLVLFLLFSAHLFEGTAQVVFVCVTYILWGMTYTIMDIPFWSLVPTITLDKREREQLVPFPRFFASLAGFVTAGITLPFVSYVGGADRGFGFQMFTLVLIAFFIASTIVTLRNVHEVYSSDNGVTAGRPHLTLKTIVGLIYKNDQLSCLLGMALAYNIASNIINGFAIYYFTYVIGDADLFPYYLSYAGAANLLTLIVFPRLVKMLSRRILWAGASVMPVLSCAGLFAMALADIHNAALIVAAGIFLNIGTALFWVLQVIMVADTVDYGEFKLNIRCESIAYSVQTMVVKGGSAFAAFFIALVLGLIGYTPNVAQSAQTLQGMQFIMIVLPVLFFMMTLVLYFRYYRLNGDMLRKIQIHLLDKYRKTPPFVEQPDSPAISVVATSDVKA

For `OC[C@H]1O[C@H](OC[C@H]2OC(O)[C@H](O)[C@@H](O)[C@@H]2O)[C@H](O)[C@@H](O)[C@H]1O` (some centres unmarked) [melibiose], the Kd [1] was 8.5 ± 0.21 mM and the Kd ([2]; read-out: Melibiose, pH 7.5, 25 °C, no Na+ or Li+, UDM) was 5.82 ± 0.46 mM.
In the case of `O=[N+]([O-])c1ccc(O[C@H]2O[C@H](CO)[C@H](O)[C@H](O)[C@H]2O)cc1` [α-NPG, 4-nitrophenyl-α-D-galactopyranoside], the Kd [2] is reported as 0.0151 ± 0.00186 mM.
For “Melibiose permease MelB (MelBSt) (Salmonella enterica serovar Typhimurium)”, the pKa (Asp59; absence of melibiose (sugar-free)) is listed as 6.25 and the pKa (Asp59; presence of melibiose) is listed as “approximately 6.5”.
